Results: US20190119251A1, “AMIDE-SUBSTITUTED ARYLTRIAZOLE DERIVATIVES AND USES THEREOF” (BAYER PHARMA AKTIENGESELLSCHAFT, priority 2016, published 2019)

How the values were obtained:
human V1a receptor = biological target: T1, human V1a receptor (Homo sapiens, UniProt P37288); test: Cellular in vitro assay for determining vasopressin receptor activity (V1a cell line, aequorin luminescence); assay type: cell-based; settings: for IC50: CHO cell line transfected with the human V1a receptor, agonist [Arg8]-vasopressin at EC50 concentration, read-out: IC50 hV1a; for ratio IC50 hV2/hV1a: ratio of cellular IC50 values, human V2 over human V1a
T1 construct: expressed in transfected cells; host or cells: CHO K1 (Chinese hamster ovary), also stably transfected with modified aequorin

human V2 receptor = biological target: T2, human V2 receptor (Homo sapiens, UniProt P30518); test: Cellular in vitro assay for determining vasopressin receptor activity (V2 cell line, CRE-luciferase); assay type: cell-based; settings: CHO cell line transfected with the human V2 receptor; agonist [Arg8]-vasopressin at EC50 concentration; 3 hours incubation; read-out: IC50 hV2
T2 construct: expressed in transfected cells; host or cells: CHO K1 (Chinese hamster ovary) expressing firefly luciferase under a CRE-responsive promoter
T2 sequence (P30518 whole entry): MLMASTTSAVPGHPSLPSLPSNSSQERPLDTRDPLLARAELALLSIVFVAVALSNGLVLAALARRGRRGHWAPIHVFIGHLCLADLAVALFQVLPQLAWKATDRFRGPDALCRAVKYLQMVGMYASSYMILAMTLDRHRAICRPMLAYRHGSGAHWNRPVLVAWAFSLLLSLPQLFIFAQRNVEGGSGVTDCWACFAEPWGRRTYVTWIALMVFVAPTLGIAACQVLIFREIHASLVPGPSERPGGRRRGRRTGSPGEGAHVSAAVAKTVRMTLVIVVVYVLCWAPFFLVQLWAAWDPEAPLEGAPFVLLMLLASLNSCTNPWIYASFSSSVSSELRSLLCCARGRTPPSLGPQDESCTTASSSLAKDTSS

T1 sequence (P37288 whole entry): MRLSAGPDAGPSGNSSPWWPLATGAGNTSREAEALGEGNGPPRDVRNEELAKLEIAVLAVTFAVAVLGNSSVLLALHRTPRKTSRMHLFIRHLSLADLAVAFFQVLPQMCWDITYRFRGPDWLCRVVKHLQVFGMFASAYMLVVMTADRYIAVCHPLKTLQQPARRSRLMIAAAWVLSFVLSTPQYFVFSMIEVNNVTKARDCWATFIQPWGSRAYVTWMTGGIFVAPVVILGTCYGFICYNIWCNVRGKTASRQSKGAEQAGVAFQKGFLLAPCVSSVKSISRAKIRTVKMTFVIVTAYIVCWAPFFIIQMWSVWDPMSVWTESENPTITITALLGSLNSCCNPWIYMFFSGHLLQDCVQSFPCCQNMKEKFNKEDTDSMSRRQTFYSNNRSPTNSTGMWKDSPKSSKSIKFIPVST

| Structure (SMILES) | IC50 (human V1a receptor) [nM] | ratio IC50 hV2/hV1a (human V1a receptor) | IC50 (human V2 receptor) [nM] |
| --- | --- | --- | --- |
| NC(=O)c1nc(Cn2nc(-c3ccc(Cl)cc3)n(C[C@H](O)C(F)(F)F)c2=O)nn1-c1cccnc1Cl [Example 10, 3-({3-(4-Chlorophenyl)-5-oxo-4-[(2S)-3,3,3-trifluoro-2-hydroxypropyl]-4,5-dihydro-1H-1,2,4-triazol-1-yl}methyl)-1-(2-chloropyridin-3-yl)-1H-1,2,4-triazole-5-carboxamide] | 97.5 | 1.6 | 152 |
| NC(=O)c1nc(Cn2nc(-c3ccc(Cl)cc3)n(C[C@@H](O)C(F)(F)F)c2=O)nn1-c1ccccc1Cl [Example 36, 1-(2-Chlorophenyl)-3-({3-(4-chlorophenyl)-5-oxo-4-[(2R)-3,3,3-trifluoro-2-hydroxypropyl]-4,5-dihydro-1H-1,2,4-triazol-1-yl}methyl)-1H-1,2,4-triazole-5-carboxamide] | 3.8 | 23.0 | 87.5 |
| CCc1ccccc1-n1nc(Cn2nc(-c3ccc(Cl)cc3)n(C[C@H](O)C(F)(F)F)c2=O)nc1C(N)=O [Example 20, 3-({3-(4-Chlorophenyl)-5-oxo-4-[(2S)-3,3,3-trifluoro-2-hydroxypropyl]-4,5-dihydro-1H-1,2,4-triazol-1-yl}methyl)-1-(2-ethylphenyl)-1H-1,2,4-triazole-5-carboxamide] | 0.75 | 3.7 | 2.73 |
| CCc1cccc(C)c1-n1nc(Cn2nc(-c3ccc(Cl)cc3)n(C[C@H](O)C(F)(F)F)c2=O)nc1C(N)=O [Example 31, 3-({3-(4-Chlorophenyl)-5-oxo-4-[(2S)-3,3,3-trifluoro-2-hydroxypropyl]-4,5-dihydro-1H-1,2,4-triazol-1-yl}methyl)-1-(2-ethyl-6-methylphenyl)-1H-1,2,4-triazole-5-carboxamide] | 14.5 | 0.5 | 7.95 |
| NC(=O)c1nc(Cn2nc(-c3ccc(Cl)cc3)n(C[C@H](O)C(F)(F)F)c2=O)nn1-c1ccccc1Cl [Example 35, 1-(2-Chlorophenyl)-3-({3-(4-chlorophenyl)-5-oxo-4-[(2S)-3,3,3-trifluoro-2-hydroxypropyl]-4,5-dihydro-1H-1,2,4-triazol-1-yl}methyl)-1H-1,2,4-triazole-5-carboxamide] | 0.77 | 11.1 | 8.46 |
